# Measurements reported in patent US7655392B2, “Quenching methods for red blood cell inactivation process” (priority 2004, dated 2010).
# “And” between values parts separate entries of the source, which are not always exact repeats. Equal entries are not always repeated.
# Legend:
# [1] = test system: Yersinia enterocolitica; assay: Inactivation of Yersinia enterocolitica in RBC (colony count); assay type: cell-based
# [2] = Co-formulation of PIC-1 with neutralized glutathione in one solution (observation); assay type: physicochemical; conditions: PIC-1 and 20 mM glutathione neutralized with NaOH in one solution (Table 2A samples 4-6)
# Text: The methods of the invention result in adequate inactivation of possible pathogen contaminants in red blood cell compositions with improved quenching as compared to known methods. […] In some embodiments, the quencher is acidic and is neutralized with 1 to 2 equivalents of a suitable base, such as sodium hydroxide. In a preferred embodiment, the quencher is glutathione neutralized with 2 equivalents of base. In a preferred embodiment, the pathogen inactivating compound comprises an acridine group linked to a mustard group via an ester bond. […] The quencher may be added to the red blood cell composition before, after, or simultaneously with the pathogen inactivating compound. In some embodiments, the quencher is added in the time range of about 30 minutes prior to pathogen inactivating compound up to about 10 minutes following pathogen inactivating compound. In some embodiments, the quencher and pathogen inactivating compound may be added essentially simultaneously but separately. […] Because of the high concentration of glutathione required for adequate quenching, the pathogen inactivating compound precipitates when these are in the same solution in high concentrations. Once added to the red blood cell composition, they are sufficiently diluted and buffered as to both be completely soluble.
# [3] = test system: leukocytes; conditions: standard pathogen inactivation conditions; cited from earlier work
# [4] = test system: Staphylococcus epidermidis; assay: Inactivation of Staphylococcus epidermidis in RBC (colony count); conditions: for Change in Log titer: initial RBC titer 6.5
# Procedure: Whole blood (Blood Source, Sacramento, Calif.) was used to prepare a red blood cell (RBC) composition by centrifuging to provide packed RBC (34 mL of approximately 90% hematocrit), then adding 17 mL Erythrosol to a hematocrit of approximately 60%. Erythrosol is a red blood cell additive (Baxter Healthcare Corp., Deerfield, Ill.) that may be prepared by combining sodium citrate dihydrate (7.82 g); sodium acid phosphate dihydrate (0.73 g); sodium phosphate dihydrate (3.03 g); adenine (0.22 g); mannitol (7.74 g); and glucose (9 g) in 1 liter of distilled water. The bacterial preparation was then added ( 1/100th of the total volume) to the RBC/Erythrosol to provide contaminated RBC. The contaminated RBC was divided into several samples and treated according to Table 2, where PIC-1 is β-alanine, N-(acridin-9-yl), 2-[bis(2-chloroethyl)amino]ethyl ester. The PIC-1 and glutathione (Aldrich, St. Louis, Mo.) were dissolved in a solution of 8% dextrose monohydrate at about 15× the desired concentration in the final red blood cell composition when added together, or 30× when added separately. […] For separate addition using 20 mM neutralized glutathione, PIC-1 is prepared by dissolving 7.6 mg in 2.5 mL of 8% dextrose, glutathione is prepared by dissolving 460 mg in 1.9 mL of 8% dextrose and mixing with 0.6 mL of 5N NaOH, then adding 165 μL of each solution to 4.67 mL RBC in the appropriate order. Following treatment, the samples were incubated for 2 hours, and 100 μL of each was serially diluted and plated on LB plates. These were incubated overnight at 37° C. in order to assess bacterial growth. The bacterial titer was determined by counting colonies on the plates and based on the dilution of the plate, the titer was determined. For example, with 10-fold serial dilutions, 30 colonies counted on the 5th dilution of the original solution, where 0.1 mL are plated, would indicate an initial titer of (30×10^5)/0.1=3×10^7, or 7.47 log. […] Note that for most samples in Table 2A the PIC-1 and glutathione were formulated together. […] The study was repeated with sequential addition of the two components, as indicated in Table 2B (time delay of 0 indicates they were added in the same solution).
# Additional studies were done using S. epidermidis, where the overnight culture was used without dilution. […] PIC-1 is at 0.2 mM in all samples.
# For these samples, the NaOH stock was prepared at 10N and appropriate volumes of the various components were used following the procedures above. Standard conditions and/or 20 mM neutralized glutathione (GSH) were run for comparison.
# [5] = pH of quencher stock and of RBC mixture; assay type: physicochemical; conditions: for pH of stock quencher: room temperature
# Procedure: The effect of various quenching conditions on the pH of a red blood cell composition was determined for various treatment conditions. The quencher solutions were prepared at a concentration of 600 mM in 8% dextrose monohydrate. […] Glutathione was assessed at 2 mM (acidic) or 20 mM (2 eq. of base). […] The pH of the quencher solution, either unmodified or neutralized, was measured using a standard Epoxy Calomel electrode (Beckman Instruments) at room temperature. […] The samples were mixed and the pH at room temperature was measured using the same electrode as described above.
# In these, the appropriate amount of 600 mM stock was added, mixed with an appropriate volume of 8% dextrose to provide the same volume addition to each RBC sample where in one study, with varied glutathione concentrations, the pH was measured after adding glutathione and after adding PIC-1. […] Similar samples were also assessed for the inactivation of S. epidermidis. […] For gel card analysis, after incubation, the RBC were washed in BBS and were diluted in BBS to a final hematocrit of 4%. A 25 μL aliquot of each was mixed with 15 μL of rabbit polyclonal anti-acridine sera diluted either 1:4 or 1:100 in BBS and the mixture was incubated at 37° C. for 30 minutes. The cells were subsequently washed with 1.5 mL BBS. After washing was complete, the cells were mixed with goat anti-rabbit Fab′2 fragment anti H+L chains (1:4 dilution in PBS) and incubated at 37° C. for 30 minutes.
# [6] = 0.2 mM PIC-1, 2 mM acidic glutathione (0 eq base), no delay
# [7] = 20 mM cysteine+1 eq base, then 0.2 mM PIC-1 after 10 min
# [8] = 20 mM cysteine+2 eq base, then 0.2 mM PIC-1 after 10 min
# [9] = 20 mM glutathione+2 eq base, then 0.2 mM PIC-1 after 10 min
# [10] = 0.2 mM PIC-1, then 20 mM glutathione+2 eq base after 1 min
# [11] = 0.2 mM PIC-1, then 20 mM glutathione+2 eq base after 5 min
# [12] = 0.2 mM PIC-1, then 20 mM glutathione+2 eq base after 10 min
# [13] = 0.2 mM PIC-1, then 20 mM glutathione+2 eq base after 20 min
# [14] = 0.2 mM PIC-1 and 2 mM glutathione, 0 eq base, simultaneous
# [15] = 0.2 mM PIC-1 and 20 mM glutathione, 0 eq base, simultaneous
# [16] = 20 mM glutathione+2 eq base, then 0.2 mM PIC-1 after 1 min
# [17] = Table 5C: 0.2 mM PIC-1+2 mM GSH, 0 eq base, no delay
# [18] = Table 5C: 5 mM Cys+1 eq base, then 0.2 mM PIC-1 after 10 min
# [19] = Table 5C: 10 mM Cys+1 eq base, then 0.2 mM PIC-1 after 10 min
# [20] = Table 5C: 20 mM Cys+1 eq base, then 0.2 mM PIC-1 after 10 min
# [21] = Table 5C: 20 mM GSH+2 eq base, then 0.2 mM PIC-1 after 10 min
# [22] = Table 5C: […] Cys+1 eq base, then 0.2 mM PIC-1 after 10 min
smiles,measurement,setting,value
O=C(CCNc1c2ccccc2nc2ccccc12)OCCN(CCCl)CCCl [PIC-1],Log Y. enterocolitica reduction,[1]; [6],8.49 Log
same,Log Y. enterocolitica titer,[1]; [6],0.00 Log
same,Log Y. enterocolitica reduction,[1]; [7],4.04 Log
same,Log Y. enterocolitica titer,[1]; [7],4.45 Log
same,Log Y. enterocolitica reduction,[1]; [8],5.79 Log
same,Log Y. enterocolitica titer,[1]; [8],2.70 Log
same,Log Y. enterocolitica reduction,[1]; [9],5.95 Log
same,Log Y. enterocolitica titer,[1]; [9],2.54 Log
same,reduction of log inactivation relative to the standard condition,"[1]; 20 mM neutralized cysteine or neutralized glutathione, 0.2 mM PIC-1",about 2.5 log
same,solubility when formulated together with neutralized glutathione,[2],precipitated out of solution
same,leukocyte inactivation (level of detection of limiting dilution assay),[3],5.3 log
same,Log S. epidermidis reduction,[4]; [10],6.70 Log
same,Log S. epidermidis titer,[4]; [10],−0.08 Log
same,Log S. epidermidis reduction,[4]; [11],6.70 Log
same,Log S. epidermidis titer,[4]; [11],−0.08 Log
same,Log S. epidermidis reduction,[4]; [12],6.70 Log
same,Log S. epidermidis titer,[4]; [12],−0.08 Log
same,Log S. epidermidis reduction,[4]; [13],6.70 Log
same,Log S. epidermidis titer,[4]; [13],−0.08 Log
same,Log S. epidermidis reduction,[4]; [14],6.70 Log
same,Log S. epidermidis titer,[4]; [14],−0.08 Log
same,Log S. epidermidis reduction,[4]; [15],0.22 Log
same,Log S. epidermidis titer,[4]; [15],6.40 Log
same,Log S. epidermidis reduction,[4]; [16],6.10 Log
same,Log S. epidermidis titer,[4]; [16],0.52 Log
same,Log S. epidermidis reduction,[4]; [9],5.92 Log
same,Log S. epidermidis titer,[4]; [9],0.70 Log
same,inactivation of S. epidermidis,"[4]; 20 mM neutralized glutathione as quencher, 0.2 mM PIC-1",not significantly reduced
same,Log S. epidermidis reduction,[4]; [17],7.2 Log
same,Log S. epidermidis titer,[4]; [17],0 Log
same,Log S. epidermidis reduction,[4]; [18],7.2 Log
same,Log S. epidermidis titer,[4]; [18],0 Log
same,Log S. epidermidis reduction,[4]; [19],4.9 Log
same,Log S. epidermidis titer,[4]; [19],2.3 Log
same,Log S. epidermidis reduction,[4]; [20],4.0 Log
same,Log S. epidermidis titer,[4]; [20],3.2 Log
same,Log S. epidermidis reduction,[4]; [21],7.2 Log
same,Log S. epidermidis titer,[4]; [21],0 Log
same,Log S. epidermidis reduction,[4]; [22],7.2 Log
same,Log S. epidermidis titer,[4]; [22],0 Log
same,Change in Log titer,"[4]; 2 mM GSH, 1 eq. base, 0.2 mM PIC-1",6.5 Log
same,Change in Log titer,"[4]; 2 mM GSH, 2 eq. base, 0.2 mM PIC-1",6.5 Log
same,Change in Log titer,"[4]; 2 mM GSH, no added base, 0.2 mM PIC-1",6.5 Log
same,Change in Log titer,"[4]; 5 mM GSH, 1 eq. base, 0.2 mM PIC-1",6.5 Log
same,Change in Log titer,"[4]; 5 mM GSH, 2 eq. base, 0.2 mM PIC-1",6.5 Log
same,Change in Log titer,"[4]; 5 mM GSH, no added base, 0.2 mM PIC-1",6.5 Log
same,Change in Log titer,"[4]; 10 mM GSH, 1 eq. base, 0.2 mM PIC-1",6.5 Log
same,Change in Log titer,"[4]; 10 mM GSH, 2 eq. base, 0.2 mM PIC-1",6.5 Log
same,Change in Log titer,"[4]; 10 mM GSH, no added base, 0.2 mM PIC-1",2.9 Log
same,Change in Log titer,"[4]; 20 mM GSH, 1 eq. base, 0.2 mM PIC-1",6.5 Log
same,Change in Log titer,"[4]; 20 mM GSH, 2 eq. base, 0.2 mM PIC-1",6.5 Log
same,Change in Log titer,"[4]; 20 mM GSH, no added base, 0.2 mM PIC-1",2.5 Log
"N[C@@H](CCC(=O)N[C@@H](CS)C(=O)NCC(=O)O)C(=O)O [glutathione, γ-L-glutamyl-L-cysteinyl-glycine]",pH of stock quencher,[5]; 600 mM in 8% dextrose + 1 eq. base,6.1
same,pH of stock quencher,[5]; 600 mM in 8% dextrose + 2 eq. base,9.5 and 9.2
same,pH of stock quencher,"[5]; 600 mM in 8% dextrose, no base added",2.82 and 3.0
same,pH of mixture Post quencher,[5]; RBC + 2 mM acidic glutathione,6.7
same,pH of mixture Final,[5]; RBC + 2 mM acidic glutathione + 0.2 mM PIC-1,6.7
same,pH of mixture Post quencher,[5]; RBC + 2 mM glutathione + 1 eq. base,6.8
same,pH of mixture Final,[5]; RBC + 2 mM glutathione + 1 eq. base + 0.2 mM PIC-1,6.8
same,pH of mixture Post quencher,[5]; RBC + 2 mM glutathione + 2 eq. base,6.8
same,pH of mixture Final,[5]; RBC + 2 mM glutathione + 2 eq. base + 0.2 mM PIC-1,6.8
same,pH of mixture Post quencher,[5]; RBC + 5 mM acidic glutathione,6.6
same,pH of mixture Final,[5]; RBC + 5 mM acidic glutathione + 0.2 mM PIC-1,6.6
same,pH of mixture Post quencher,[5]; RBC + 5 mM glutathione + 1 eq. base,6.7
same,pH of mixture Final,[5]; RBC + 5 mM glutathione + 1 eq. base + 0.2 mM PIC-1,6.7
same,pH of mixture Post quencher,[5]; RBC + 5 mM glutathione + 2 eq. base,6.9
same,pH of mixture Final,[5]; RBC + 5 mM glutathione + 2 eq. base + 0.2 mM PIC-1,6.9
same,pH of mixture Post quencher,[5]; RBC + 10 mM acidic glutathione,6.4
same,pH of mixture Final,[5]; RBC + 10 mM acidic glutathione + 0.2 mM PIC-1,6.4
same,pH of mixture Post quencher,[5]; RBC + 10 mM glutathione + 1 eq. base,6.7
same,pH of mixture Final,[5]; RBC + 10 mM glutathione + 1 eq. base + 0.2 mM PIC-1,6.7
same,pH of mixture Post quencher,[5]; RBC + 10 mM glutathione + 2 eq. base,7.2
same,pH of mixture Final,[5]; RBC + 10 mM glutathione + 2 eq. base + 0.2 mM PIC-1,7.0
same,pH of mixture Post quencher,[5]; RBC + 20 mM acidic glutathione,6.1
same,pH of mixture Final,[5]; RBC + 20 mM acidic glutathione + 0.2 mM PIC-1,6.1
same,pH of mixture Post quencher,[5]; RBC + 20 mM glutathione + 1 eq. base,6.7
same,pH of mixture Final,[5]; RBC + 20 mM glutathione + 1 eq. base + 0.2 mM PIC-1,6.7
same,pH of mixture Post quencher,[5]; RBC + 20 mM glutathione + 2 eq. base,7.4
same,pH of mixture Final,[5]; RBC + 20 mM glutathione + 2 eq. base + 0.2 mM PIC-1,7.2
same,pH of final mixture,[5]; Table 10: RBC + 2 mM acidic quencher + 0.2 mM PIC-1,6.9
same,pH of final mixture,[5]; Table 10: RBC + 20 mM quencher + 2 eq. base + 0.2 mM PIC-1,7.7
same,pH of solution,[5]; glutathione solution neutralized with 2 equivalents of sodium hydroxide,approximately 9.5
same,pH of solution,[5]; solution of the protonated glutathione,approximately 3
